Reference: ChEMBL document CHEMBL4419173, “Small-molecule inhibitors targeting g-protein-coupled rho guanine nucleotide exchange factors” (2014)
The source made the active and inactive calls. No cut-off for these calls is given here.

Tests used:
Mus musculus [1] = species on record: Mus musculus; assay: Inhibition of RhoGEF in mouse NIH/3T3 cells assessed as inhibition of 10% calf serum-induced Rac1-GTP formation by measuring relative Rac1-GTP level at 50 uM incubated for 24 hrs by densitometry (reference value: 1); format: cell-based
MCF7 [2] = assay: Inhibition of cell invasion of human MCF7 cells at 2.5 to 25 uM in presence of 2.5 to 25 uM Rhosin/G04 by Matrigel-coated transwell based assay; format: functional
[3] = molecular target: Rho guanine nucleotide exchange factor 12 (Homo sapiens, UniProt Q9NZN5, N983A); assay: Binding affinity to recombinant human LARG (765 to 1138 residues) N983A mutant by microscale thermophoresis analysis
MCF7 [4] = assay: Inhibition of RhoGEF in human MCF7 cells derived mammospheres assessed as inhibition of 10% calf serum-induced RhoA-GTP formation by measuring relative RhoA-GTP level at 10 uM incubated for 24 hrs by densitometry (reference value: 1); format: cell-based
[5] = molecular target: Serine/threonine-protein kinase N1/Transforming protein RhoA (Homo sapiens) (UniProt Q16512+P61586); assay: Inhibition of human PKN1 expressed in mouse NIH/3T3 cells assessed as reduction in human full length RhoA (1 to 193 residues) interaction with PKN1 at 50 to 200 uM incubated for 1 hr by Western blot analysis based His-RhoA pull-down assay; format: cell-based
Sequence of Serine/threonine-protein kinase N1/Transforming protein RhoA (Homo sapiens) (P61586 whole entry, looked up, the tested form may be a part): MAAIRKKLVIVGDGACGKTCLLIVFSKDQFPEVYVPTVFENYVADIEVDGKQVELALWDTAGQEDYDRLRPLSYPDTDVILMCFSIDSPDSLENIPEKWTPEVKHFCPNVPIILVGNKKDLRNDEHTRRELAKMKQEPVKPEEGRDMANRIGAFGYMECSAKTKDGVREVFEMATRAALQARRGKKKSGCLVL
Sequence of Serine/threonine-protein kinase N1/Transforming protein RhoA (Homo sapiens) (Q16512 whole entry, looked up, the tested form may be a part): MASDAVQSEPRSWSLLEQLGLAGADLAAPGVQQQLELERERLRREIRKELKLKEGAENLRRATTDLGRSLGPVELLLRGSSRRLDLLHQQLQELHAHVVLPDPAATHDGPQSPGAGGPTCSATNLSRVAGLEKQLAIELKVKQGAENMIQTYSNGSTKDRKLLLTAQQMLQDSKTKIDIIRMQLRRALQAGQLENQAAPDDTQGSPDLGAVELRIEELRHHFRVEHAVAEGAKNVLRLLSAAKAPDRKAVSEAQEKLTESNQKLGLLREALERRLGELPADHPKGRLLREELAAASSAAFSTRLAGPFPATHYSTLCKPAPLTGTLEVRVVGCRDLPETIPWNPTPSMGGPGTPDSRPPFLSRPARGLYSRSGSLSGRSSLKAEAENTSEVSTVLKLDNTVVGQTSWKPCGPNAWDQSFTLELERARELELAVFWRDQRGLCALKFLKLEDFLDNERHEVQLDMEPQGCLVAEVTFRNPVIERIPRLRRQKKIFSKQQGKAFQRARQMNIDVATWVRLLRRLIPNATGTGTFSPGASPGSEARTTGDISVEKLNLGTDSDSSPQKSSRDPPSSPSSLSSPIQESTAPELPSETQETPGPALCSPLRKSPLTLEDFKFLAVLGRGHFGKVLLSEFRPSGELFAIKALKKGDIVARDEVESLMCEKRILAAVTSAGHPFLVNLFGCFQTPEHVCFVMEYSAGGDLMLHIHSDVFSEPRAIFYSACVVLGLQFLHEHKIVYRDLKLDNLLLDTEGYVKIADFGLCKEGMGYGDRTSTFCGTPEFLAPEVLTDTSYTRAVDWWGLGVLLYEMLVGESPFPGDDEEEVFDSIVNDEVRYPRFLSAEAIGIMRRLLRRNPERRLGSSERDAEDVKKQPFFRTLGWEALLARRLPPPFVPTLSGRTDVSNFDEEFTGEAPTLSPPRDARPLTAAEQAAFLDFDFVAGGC

Mus musculus [6] = species on record: Mus musculus; assay: Inhibition of RhoGEF in mouse NIH/3T3 cells assessed as inhibition of 10% calf serum-induced RhoA-GTP formation by measuring relative RhoA-GTP level at 15 uM in presence of 15 uM Rhosin/G04 incubated for 24 hrs by densitometry (reference value: 1); format: cell-based
Mus musculus [7] = species on record: Mus musculus; assay: Inhibition of RhoGEF in mouse NIH/3T3 cells assessed as inhibition of 10% calf serum-induced RhoA-GTP formation by measuring RhoA-GTP level at 10 uM incubated for 24 hrs by densitometry relative to control (reference value: 2.15); format: cell-based
[8] = system: Transforming protein RhoA (Homo sapiens), P61586 [Q63L]; assay: Inhibition of constitutively active RhoA Q63L mutant (unknown origin) expressed in mouse NIH/3T3 cells assessed as reduction in 10% calf serum-induced actin stress fiber formation at 50 uM by rhodamine-phalloidin staining based assay; format: cell-based
Sequence of Transforming protein RhoA (Homo sapiens), P61586 [Q63L] (P61586 whole entry Q63L): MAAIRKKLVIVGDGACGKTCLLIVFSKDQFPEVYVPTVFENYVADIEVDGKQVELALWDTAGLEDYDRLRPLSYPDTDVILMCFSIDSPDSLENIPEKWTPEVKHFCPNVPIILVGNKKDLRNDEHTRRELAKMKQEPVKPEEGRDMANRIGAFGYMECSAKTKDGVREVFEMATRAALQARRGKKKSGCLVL

Mus musculus [9] = species on record: Mus musculus; assay: Inhibition of RhoGEF in mouse NIH/3T3 cells assessed as inhibition of 10% calf serum-induced Cdc42-GTP formation by measuring Cdc42-GTP level at 10 uM incubated for 24 hrs by densitometry relative to control (reference value: 3.25); format: cell-based
[10] = molecular target: T1, Rho guanine nucleotide exchange factor 12 (Homo sapiens, UniProt Q9NZN5); assay: Inhibition of human LARG (765 to 1138 residues) RhoGEF binding to human full length RhoA (1 to 193 residues)
T1 sequence (Q9NZN5 whole entry, the tested form may be a part): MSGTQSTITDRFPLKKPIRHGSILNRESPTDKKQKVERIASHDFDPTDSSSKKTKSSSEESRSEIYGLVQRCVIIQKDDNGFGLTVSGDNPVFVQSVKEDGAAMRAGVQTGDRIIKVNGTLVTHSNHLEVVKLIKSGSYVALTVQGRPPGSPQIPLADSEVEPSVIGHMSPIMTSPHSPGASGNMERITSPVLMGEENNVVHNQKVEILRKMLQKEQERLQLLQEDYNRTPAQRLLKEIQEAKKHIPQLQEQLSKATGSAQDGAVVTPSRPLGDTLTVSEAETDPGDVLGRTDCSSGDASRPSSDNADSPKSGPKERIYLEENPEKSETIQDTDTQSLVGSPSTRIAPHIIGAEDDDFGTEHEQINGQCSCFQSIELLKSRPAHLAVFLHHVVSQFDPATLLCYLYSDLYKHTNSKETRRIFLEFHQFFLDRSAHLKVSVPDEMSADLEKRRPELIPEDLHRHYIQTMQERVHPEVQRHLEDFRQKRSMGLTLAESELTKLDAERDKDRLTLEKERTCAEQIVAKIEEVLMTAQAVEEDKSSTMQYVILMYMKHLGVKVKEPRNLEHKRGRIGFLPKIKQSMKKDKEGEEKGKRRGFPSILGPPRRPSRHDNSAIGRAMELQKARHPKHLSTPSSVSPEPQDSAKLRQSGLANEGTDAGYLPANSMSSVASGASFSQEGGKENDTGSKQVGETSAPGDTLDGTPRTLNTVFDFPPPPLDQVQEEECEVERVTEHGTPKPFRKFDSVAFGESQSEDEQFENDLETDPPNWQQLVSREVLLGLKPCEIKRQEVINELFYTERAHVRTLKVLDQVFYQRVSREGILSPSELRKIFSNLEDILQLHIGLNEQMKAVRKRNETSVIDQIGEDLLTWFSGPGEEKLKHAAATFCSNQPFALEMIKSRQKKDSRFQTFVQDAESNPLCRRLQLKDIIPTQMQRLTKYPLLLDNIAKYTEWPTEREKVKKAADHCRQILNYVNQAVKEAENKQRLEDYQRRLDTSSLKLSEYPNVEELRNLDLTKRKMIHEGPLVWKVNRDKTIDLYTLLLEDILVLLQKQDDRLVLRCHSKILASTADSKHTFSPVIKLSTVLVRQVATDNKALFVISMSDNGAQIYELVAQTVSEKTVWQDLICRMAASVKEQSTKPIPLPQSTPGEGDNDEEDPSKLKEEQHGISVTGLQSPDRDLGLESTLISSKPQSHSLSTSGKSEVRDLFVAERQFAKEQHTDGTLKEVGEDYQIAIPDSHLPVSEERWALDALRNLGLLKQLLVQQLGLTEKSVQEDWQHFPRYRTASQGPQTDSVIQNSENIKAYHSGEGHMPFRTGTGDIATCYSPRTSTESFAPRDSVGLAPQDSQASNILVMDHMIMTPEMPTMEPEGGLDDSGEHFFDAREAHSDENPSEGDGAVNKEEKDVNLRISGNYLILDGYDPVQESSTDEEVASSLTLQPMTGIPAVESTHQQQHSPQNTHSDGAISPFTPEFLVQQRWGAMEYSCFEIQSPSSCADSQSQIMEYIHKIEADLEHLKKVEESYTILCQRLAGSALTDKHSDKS

Mus musculus [11] = species on record: Mus musculus; assay: Inhibition of RhoGEF-mediated Rac1 signaling in mouse NIH/3T3 cells assessed as reduction in PDGF-stimulated Rac1-mediated lamellipodia formation at 10 to 30 uM; format: cell-based
[12] = molecular target: Rho guanine nucleotide exchange factor 12 (Homo sapiens, UniProt Q9NZN5, V1099A); assay: Binding affinity to recombinant human LARG (765 to 1138 residues) V1099A mutant by microscale thermophoresis analysis
MCF7 [13] = assay: Inhibition of RhoGEF in human MCF7 cells derived mammospheres assessed as inhibition of RhoA-mediated phospho-MLC formation at 10 uM incubated for 24 hrs by densitometry; format: cell-based
[14] = molecular target: T1, Rho guanine nucleotide exchange factor 12; assay: Inhibition of human LARG (765 to 1138 residues) RhoGEF binding to human full length RhoA (1 to 193 residues) in presence of Rhosin/G04
Mus musculus [15] = species on record: Mus musculus; assay: Inhibition of RhoGEF in mouse NIH/3T3 cells assessed as inhibition of 10% calf serum-induced Cdc42-GTP formation by measuring Cdc42-GTP level at 30 uM incubated for 24 hrs by densitometry relative to control (reference value: 3.25); format: cell-based
MCF7 [16] = assay: Inhibition of RhoGEF in human MCF7 cells derived mammospheres assessed as inhibition of 10% calf serum-induced RhoA-GTP formation by measuring relative RhoA-GTP level at 2.5 uM in presence of 2.5 uM Rhosin/G04 incubated for 24 hrs by densitometry (reference value: 1); format: cell-based
Mus musculus [17] = species on record: Mus musculus; assay: Inhibition of RhoGEF in mouse NIH/3T3 cells assessed as inhibition of 10% calf serum-induced Rac1-GTP formation by measuring relative Rac1-GTP level at 50 uM in presence of 50 uM Rhosin/G04 incubated for 24 hrs by densitometry (reference value: 1); format: cell-based
Mus musculus [18] = species on record: Mus musculus; assay: Inhibition of RhoGEF in mouse NIH/3T3 cells assessed as reduction in 10% calf serum-induced rhoA-mediated actin stress fiber formation at 2.5 uM in presence of 2.5 uM Rhosin/G04 by rhodamine-phalloidin staining based assay; format: cell-based
[19] = system: Rho-associated protein kinase 2 (Homo sapiens), O75116 [UNDEFINED MUTATION]; assay: Inhibition of constitutively active ROCK2 mutant (unknown origin) expressed in mouse NIH/3T3 cells assessed as reduction in 10% calf serum-induced focal adhesion complex formation at 530 uM by anti-vinculin antibody staining based assay; format: cell-based
Sequence of Rho-associated protein kinase 2 (Homo sapiens), O75116 [UNDEFINED MUTATION] (O75116 whole entry, looked up, change not shown): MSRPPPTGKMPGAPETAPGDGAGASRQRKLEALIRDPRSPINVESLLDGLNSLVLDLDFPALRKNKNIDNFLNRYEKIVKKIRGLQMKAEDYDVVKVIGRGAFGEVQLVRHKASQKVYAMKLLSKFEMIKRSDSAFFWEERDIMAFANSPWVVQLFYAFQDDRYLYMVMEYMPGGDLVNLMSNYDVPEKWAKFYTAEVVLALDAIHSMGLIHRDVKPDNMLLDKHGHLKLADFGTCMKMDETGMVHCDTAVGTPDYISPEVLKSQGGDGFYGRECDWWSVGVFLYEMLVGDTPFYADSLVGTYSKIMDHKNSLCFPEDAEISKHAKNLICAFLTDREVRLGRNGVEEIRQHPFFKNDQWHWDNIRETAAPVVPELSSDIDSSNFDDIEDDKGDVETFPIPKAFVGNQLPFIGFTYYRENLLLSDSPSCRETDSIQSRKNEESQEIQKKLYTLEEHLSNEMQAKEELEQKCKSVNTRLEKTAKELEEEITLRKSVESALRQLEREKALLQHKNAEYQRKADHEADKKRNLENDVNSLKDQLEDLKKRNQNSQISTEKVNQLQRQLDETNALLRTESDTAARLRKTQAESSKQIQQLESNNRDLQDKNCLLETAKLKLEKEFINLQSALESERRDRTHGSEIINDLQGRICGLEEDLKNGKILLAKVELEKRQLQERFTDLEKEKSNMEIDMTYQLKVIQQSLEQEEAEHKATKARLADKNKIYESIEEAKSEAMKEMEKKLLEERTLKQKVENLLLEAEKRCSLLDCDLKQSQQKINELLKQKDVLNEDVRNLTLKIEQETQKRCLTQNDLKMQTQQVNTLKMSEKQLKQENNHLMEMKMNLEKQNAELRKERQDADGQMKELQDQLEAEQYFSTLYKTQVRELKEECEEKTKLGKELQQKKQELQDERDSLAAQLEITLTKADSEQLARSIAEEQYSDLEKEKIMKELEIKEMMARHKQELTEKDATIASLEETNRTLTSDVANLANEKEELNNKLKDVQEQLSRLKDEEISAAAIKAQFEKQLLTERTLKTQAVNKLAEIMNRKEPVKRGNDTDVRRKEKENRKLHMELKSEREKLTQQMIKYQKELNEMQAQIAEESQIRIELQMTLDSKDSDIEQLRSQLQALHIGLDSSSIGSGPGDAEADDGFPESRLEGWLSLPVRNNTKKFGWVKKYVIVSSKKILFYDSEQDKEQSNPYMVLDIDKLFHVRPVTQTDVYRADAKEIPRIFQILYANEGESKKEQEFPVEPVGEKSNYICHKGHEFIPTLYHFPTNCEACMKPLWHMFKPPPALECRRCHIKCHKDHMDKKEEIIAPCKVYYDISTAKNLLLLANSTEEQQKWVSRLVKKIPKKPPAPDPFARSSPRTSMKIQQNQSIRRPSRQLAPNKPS

Mus musculus [20] = species on record: Mus musculus; assay: Inhibition of RhoGEF-mediated RhoA signaling in mouse NIH/3T3 cells assessed as reduction in 10% calf serum-induced stress fiber and focal complex formation 30 uM incubated for 24 hrs; format: cell-based
MCF7 [21] = assay: Inhibition of mammospheres formation in human MCF7 cells incubated for 10 days; format: functional, cell-based
[22] = molecular target: Protein diaphanous homolog 1/Transforming protein RhoA (Homo sapiens) (UniProt P61586+O60610); assay: Inhibition of human mDia1 expressed in mouse NIH/3T3 cells assessed as reduction in human full length RhoA (1 to 193 residues) interaction with mDia1 at 50 to 100 uM incubated for 1 hr by Western blot analysis based His-RhoA pull-down assay; format: cell-based
MCF7 [23] = assay: Inhibition of cell invasion of human MCF7 cells at 10 to 50 uM by Matrigel-coated transwell based assay; format: functional
Mus musculus [24] = species on record: Mus musculus; assay: Inhibition of RhoGEF in mouse NIH/3T3 cells assessed as inhibition of 10% calf serum-induced Rac1-GTP formation by measuring Rac1-GTP level at 10 uM incubated for 24 hrs by densitometry relative to control (reference value: 2.86); format: cell-based
Mus musculus [25] = species on record: Mus musculus; assay: Inhibition of RhoGEF in mouse NIH/3T3 cells assessed as inhibition of 10% calf serum-induced RhoA-GTP formation by measuring relative RhoA-GTP level at 30 uM incubated for 24 hrs by densitometry (reference value: 1); format: cell-based
[26] = molecular target: RhoGEF 1/Transforming protein RhoA (Homo sapiens) (UniProt P61586+Q92888); assay: Binding affinity to human LARG (765 to 1138 residues) DH-PH module expressed in mouse NIH/3T3 cells assessed as reduction in LARG binding to human full length RhoA (1 to 193 residues) by measuring relative LARG binding level at 10 uM pull-down assay (reference value: 1 No unit); format: cell-based

- Kd [3]: > 500000 nM
- inhibition [5]: inactive
- inhibition [8]: inactive
- IC50 [10]: 5000 nM
- Kd [12]: 79 nM
- IC50 [14]: 1000 nM
- inhibition [19]: inactive
- inhibition [22]: inactive
- fold change (FC) [26]: 0.61
SMILES: Cc1cccc(COc2cccc(/C=C3\C(=O)NN(c4ccccc4)C3=O)c2)c1
- fold change (FC) (Mus musculus [1]): 0.93
- inhibition (MCF7 [2]): Active
- fold change (FC) (MCF7 [4]): 0.4
- fold change (FC) (Mus musculus [6]): 0.25
- fold change (FC) (Mus musculus [7]): 1.09
- fold change (FC) (Mus musculus [9]): 2.23
- inhibition (Mus musculus [11]): inactive
- inhibition (MCF7 [13]): 50%
- fold change (FC) (Mus musculus [15]): 2.11
- fold change (FC) (MCF7 [16]): 0.27
- fold change (FC) (Mus musculus [17]): 1.19
- inhibition (Mus musculus [18]): Active
- inhibition (Mus musculus [20]): Active
- inhibition (MCF7 [21]): Dose-dependent effect
- inhibition (MCF7 [23]): Active
- fold change (FC) (Mus musculus [24]): 1.83
- fold change (FC) (Mus musculus [25]): 0.51
